Data as given in ChEMBL document CHEMBL5104111, “Boron-Containing heterocycles as promising pharmacological agents” (Bioorg Med Chem, 2022).
Values after ≈ are worked out from the molar mass of the structure shown.

System: Mycobacterium tuberculosis variant bovis
Assay: Antibacterial activity against Mycobacterium bovis BCG assessed as bacterial growth inhibition
Format: functional

Row | Structure (SMILES) | MIC [µM]
1 | O=C(NCCOCCOCCNC(=O)c1ccc2c(c1)B(O)OC2)c1ccc2c(c1)COB2O | 0.39 (≈ 0.183 µg/mL)
2 | O=C(NCCCOCCOCCOCCCNC(=O)c1ccc2c(c1)B(O)OC2)c1ccc2c(c1)COB2O | 0.39 (≈ 0.211 µg/mL)
3 | O=C(NCCNC(=O)c1ccc2c(c1)B(O)OC2)c1ccc2c(c1)B(O)OC2 | 0.78 (≈ 0.296 µg/mL)
